The record followed here is US20090098050A1, “CALCIUM BINDING PEPTIDES” (THE REGENTS OF THE UNVERSITY OF CALIFORNIA, priority 2005, published 2009).

A short description of assay [1]: Binding of labeled 6DSS to sagitally sectioned human teeth (CLSM). As for the experimental part:
(§1) FIG. 1: Binding affinities of DSS and DSS variant peptides for hydroxyapatite and tooth surfaces. A-C. Fluorescein-labeled peptides at concentrations ranging from 0-100 μM were incubated with 0.3 mg of hydroxyapatite nanocrystals (specific surface area=100 m^2/g) for ten minutes, followed by removal of the hydroxyapatite by centrifugation. The amount of peptide in the mixture before and after hydroxyapatite removal was determined by Abs480. Isotherms were plotted and fit to the Langmuir equation to extract values for KA, a constant reflecting the affinity of the peptide for the hydroxyapatite surface. D. Sagitally sectioned human teeth were incubated with 12.5 μM 5(6) carboxyfluorescein-labeled 6DSS peptide for ten minutes, followed by rinsing. Peptide binding to tooth surfaces was visualized by Confocal Laser Scanning Microscopy (CLSM) using blue laser illumination (λA=488 nm) and a FITC emission filter. Left side, light colored region: dentin. Right side, dark colored region: enamel.
Control samples were prepared without peptide. Samples were rinsed after treatment and imaged by confocal laser scanning microscopy (CLSM) using blue laser illumination (excitation wavelength (λ)=488 nm) and a FITC emission filter.

Assay [2] can be described thus: Preferential binding to carious lesions in teeth (CLSM). The following applies: labeled peptide, settings optimized per sample. Further details: species or system human. As for the experimental part:
FIG. 9: Fluorescence micrographs showing specific binding of DSS peptides and variants to carious lesions in teeth. Adult human teeth were exposed to 12.5 uM 5(6)-carboxyfluorescein-labeled peptide without demineralization, washed extensively, and imaged by CLSM. Microscope and camera settings were optimized separately for each sample. […] White traces on the right side of each panel identify the position of the tooth surface, while arrows indicate the position of the stained lesion.
Sections of human teeth containing obvious carious lesions, which consist of demineralized enamel, were polished and exposed to 5(6)-carboxyfluorescein-labeled DSS peptides and variants using the protocol described in Example 2. The sections were washed extensively and imaged by CLSM using blue laser illumination (λ=488 nm) and a FITC emission filter, with microscope and camera settings adjusted for each sample to optimize the signal detected from each peptide. The images were examined to identify the relative levels of peptide binding in healthy versus carious tissue. […] Given their ability to remineralize at sites of enamel degradation (Example 6), they can also be used to initiate remineralization at sites of enamel degradation such as caries or injury sites without causing inappropriate nucleation on healthy tissue surfaces.

Assay [3] concerns mineralized mouse bone marrow nodules. Description: Binding to mineralized mouse bone marrow nodules (fluorescence microscopy). It counts as cell-based. Particulars: 2.5 μM 5(6)-carboxyfluorescein-labeled peptide, three weeks. The protocol: FIG. 2: Binding of 6DSS peptide to mineralized mouse bone marrow nodules (MBMNs). Mouse bone marrow cultures were grown to confluence, then treated for three weeks with 2.5 μM scrambled control peptide or 2.5 μM 6DSS. Cultures were imaged by fluorescence microscopy using a FITC filter set. A. Brightfield image of mineralized MBMNs from a culture treated with 6DSS. B. Fluorescence image of the field shown in (A). […] C. Brightfield image of mineralized MBMNs from a culture treated with scrambled control peptide. D. Fluorescence image of the field shown in (C), illustrating both the lack of binding of the control peptide to the MBMN's and the lack of autofluorescence within the sample. Mouse bone marrow cultures were grown to confluence in DMEM+10% FBS, then treated continuously for three weeks with either 2.5 μM 5(6)-carboxyfluorescein-labeled 6DSS or 2.5 μM 5(6)-carboxyfluorescein-labeled peptide #3-1 (scrambled control peptide, SEQ. ID NO. 24) in aMEM+10% FBS with 50 μg/mL ascorbic acid 4 mM β-glycerophosphate. Cultures were imaged by fluorescence microscopy using a FITC excitation/emission filter set, and both brightfield and fluorescence images were obtained.

Assay [4] is described as follows: Tissue specific binding of DSS peptides and variants in human teeth (CLSM). Particulars: 12.5 μM labeled peptide; for Tissue binding pattern in healthy tooth section: nondemineralized teeth. The protocol: FIG. 8: Fluorescence micrographs showing tissue specificity in the binding of DSS peptides and variants. Adult human teeth were exposed to 12.5 μM 5(6)-carboxyfluorescein-labeled peptide without demineralization, washed extensively, and imaged by CLSM. For each section, multiple scans were collected and assembled in an automated mode to generate panels of images representing an area of 13×13 mm, sufficient in most cases to encompass the whole section. The peptides used for each section are labeled beneath each panel, and within each panel the tooth is oriented with the root toward the top of the image and the crown toward the bottom. Tissue layers are labeled as follows: RTD=Root Tip Dentin; CPD=Circumpulpal Dentin; MD=Mantle Dentin; P=Pulp Cavity Wall; DEJ=Dentin-Enamel Junction; E=Enamel; BE=Basal Enamel; CE=Cortical Enamel; CL=Carious Lesion; PB=Periodontal Bone.
In order to investigate the tissue specificity of DSS peptide binding to tooth tissue, sections of human teeth were exposed to DSS peptides and variants, then imaged by CLSM as described in Example 2. The peptides utilized for these experiments were 8DSS, 8ASS, 8DAA, 8NAA, 4DSS, 4ESS, 4NSS, 4DTT, 4ETT, 4NTT, and 6DSS. Sagittal sections of human teeth extracted during normal clinical practice were polished and then incubated for ten minutes in a solution of the appropriate 5(6) carboxyfluorescein-labeled peptide (12.5 μM) containing 10 mM NaCl and 50 mM HEPES, pH 7.0. Control samples were prepared without peptide. Samples were washed extensively after treatment and imaged by CLSM using blue laser illumination (λ=488 nm) and a FITC emission filter, with identical camera and microscope settings for each sample. For each section, multiple scans were collected and assembled in an automated mode to generate panels of images representing an area of 13×13 mm, sufficient in most cases to encompass the whole section. […] Significant binding was also seen to the edges of the pulp cavity.

Assay [5] in a line: Binding of fluorescein-labeled peptides to hydroxyapatite nanocrystals (Langmuir isotherm). Particulars: fluorescein-labeled peptide 0-100 μM, 0.3 mg hydroxyapatite, ten minutes, Langmuir fit. The protocol: as §1
Four DSS peptides containing two (2DSS, SEQ ID NO:12), four (4DSS, SEQ ID NO:13), six (6DSS, SEQ ID NO:14), or eight(8DSS, SEQ ID NO:15) Asp-Ser-Ser (DSS) repeats were generated. Peptides were labeled with fluorescein, and various concentrations of the labeled peptides (0-100 μM) were mixed with a fixed amount (0.3 mg) of hydroxyapatite nanocrystals having a specific surface area of 100 m^2/g (Berkeley Advanced Biomaterials, Inc.). Samples were incubated for ten minutes, followed by removal of the hydroxyapatite by centrifugation. The amount of peptide in the mixture was measured both before and after hydroxyapatite removal by spectroscopic absorbance at 480 nm (the peak absorbance of the fluorescein label). The amount of peptide bound was calculated by comparing the ratio of the final (Af) and initial (Ai) absorbances to the initial concentration (P0) [Pbound=[…]]. Plots were generated illustrating the amount of peptide bound per m^2 of hydroxyapatite surface area versus concentration of unbound peptide at equilibrium. The resulting isotherms were fit to the Langmuir isotherm (x/m=(KANMaxCeq)/(1+KACeq)) (Calis 1995), which describes the binding activity of a molecule in terms of a combination of binding affinity (KA) and avidity (NMax). KA represents the affinity constant of the peptide for the hydroxyapatite surface. In this equation, x/m represents the molar amount of peptide bound per unit of hydroxyapatite surface area, NMax represents the maximum surface concentration (mol/m^2), and Ceq represents the molar concentration of unbound peptide at equilibrium. The Langmuir isotherm describes the binding of molecules to surfaces with the conditions that 1) all binding sites have the same affinity for the peptide, and 2) the peptide will form a monolayer on the surface but cannot accumulate to higher levels. The excellent fit of the Langmuir isotherm to the experimental data validates these conditions, and these affinity constants were used for comparisons between peptides.

Assay [6] has as its system Streptococcus mutans strain UA159. It counts as cell-based. The text has this: In order to determine the suitability of DSS peptides to serve as targeting moieties to deliver therapeutic compounds to mineralized surfaces, peptides were synthesized containing an N-terminal (DSS)4, (DSS)5, or (DSS)6 peptide, a triglycine (GGG) linker, and a 2c-4 antimicrobial peptide (SEQ ID NO:26) (J. He, unpublished). The sequences of these fusion proteins are set forth in SEQ ID NOs:27-29, respectively. The antimicrobial activity of these peptides against anaerobic planktonic bacteria was determined by a modification of a previously described assay (Qi 2005). Briefly, Streptococcus mutans strain UA159 cells were diluted to ˜1×10^5 cfu/mL in Todd-Hewitt (TH) broth medium and mixed with either suspended hydroxyapatite nanocrystals (Berkeley Advanced Biomaterials, Inc., 0.03% w/v) or, for control samples, an equivalent volume of deionized water. Aliquots were transferred into 96-well plates (Fisher). Serial dilutions of the peptides were then made and added to the bacteria. […] Nonetheless, some antimicrobial activity is retained by this peptide.

Where two headings read alike, the source gives them in different places. No end group written: not given here.

As to “6DSS: peptide containing six Asp-Ser-Ser (DSS) repeats, SEQ ID NO:14 (DSSDSSDSSDSSDSSDSS; calcium binding peptide containing six DSS repeats, 6DSS, (DSS)-6)”, the “Fluorescent staining of tooth surface” value in assay [1] (12.5 μM 5(6) carboxyfluorescein-labeled peptide, ten minutes) is recorded as “Intense fluorescent staining”. For the same substance, the “Location of peptide binding in tooth section” value in assay [1] (12.5 μM labeled peptide, dentin versus enamel) is reported as “limited to the dentin”. In assay [2], the “Specificity of binding to carious lesions versus surrounding healthy enamel” value is “highly specific binding to carious lesions” and the “Strength of staining of carious lesions” value was “exceptionally strong staining of carious lesions”. Moreover, the “Staining of mineralizing nodules” value in assay [3] is listed as “Strong staining”. For the same substance, the “Tissue binding pattern in healthy tooth section” value in assay [4] is recorded as “bound primarily to the mantle dentin”. Besides, in assay [4] (ten minutes, identical settings), the “Level of binding (staining) to tooth surfaces” value is given as “greatest levels of staining”.
For the substance “8NAA: eight repeat peptide lacking hydroxyl groups at the second and third positions, SEQ. ID NO. 23 (NAANAANAANAANAANAANAANAA; variant DSS eight repeat peptide lacking hydroxyl group at seond and third positions, 8NAA)”, the “KA, affinity constant of the peptide for the hydroxyapatite surface” value in assay [5] is 20,000 M^−1. Besides, the “Specificity of binding to carious lesions versus surrounding healthy enamel” value in assay [2] is listed as “highly specific binding to carious lesions”. In assay [4], the “Binding to carious lesion present in the sample” value was “did bind somewhat to a carious lesion” and the “Tissue binding pattern in healthy tooth section” value is reported as “very little binding to any healthy tissue”.
The MIC is the smallest concentration in the dilution series that meets the test's criterion for growth inhibition. A high value points to a need for much substance. As for DSSDSSDSSDSSGGGRWRWRWF [4DSS-2c4], the MIC result in assay [6] (planktonic S. mutans, with 0.03% (w/v) hydroxyapatite, approximately 24 hours) is “unaffected”; in assay [6] (strain UA159, 24 h), 52.5 µM.
Regarding FHFHLHF [PL-135, reference compound], in assay [6] (strain UA159, 24 h), the MIC was 21 µM.
The same measure, in the same setting: the figure for LKRFLKWFKRF [b-34, reference compound] is 5.6 µM; for RWRWRWF [2c-4, reference compound] it is 2 µM.
In the case of “peptide #3-1: scrambled control peptide, SEQ. ID NO. 24 (LIKHILHRL; scrambled control peptide #3-1) [reference compound]”, the “Staining of mineralizing nodules” value in assay [3] was “No staining”.
